Measurements: the NIST ThermoML archive (doi:10.1021/je900137r)

Test: molar heat capacity at constant volume
Conditions: Liquid, Vacuum adiabatic calorimetry

CCC [propane]
Conditions | molar heat capacity at constant volume [J/K/mol]
101.14 K, 5078 kPa | 59.59
102.31 K, 9415 kPa | 59.63
104.09 K, 13618 kPa | 59.63
105.25 K, 15961 kPa | 59.93
107.01 K, 19580 kPa | 59.8
108.15 K, 22430 kPa | 60.17
109.89 K, 26296 kPa | 60.2
111.02 K, 28556 kPa | 60.44
124.99 K, 4945 kPa | 59.16
126.59 K, 8062 kPa | 59.47
127.81 K, 10414 kPa | 59.44
129.39 K, 13480 kPa | 59.66
130.6 K, 15739 kPa | 59.6
132.17 K, 18723 kPa | 60.02
133.36 K, 20943 kPa | 60
134.92 K, 23869 kPa | 60.12
136.1 K, 26024 kPa | 60.14
137.64 K, 28865 kPa | 60.52
138.81 K, 30978 kPa | 60.43
149.78 K, 4666 kPa | 59.78
150.88 K, 6488 kPa | 59.62
152.48 K, 9113 kPa | 59.99
153.59 K, 10968 kPa | 60.1
155.17 K, 13482 kPa | 60.14
156.27 K, 15303 kPa | 60.05
157.84 K, 17768 kPa | 60.44
158.93 K, 19535 kPa | 60.5
160.49 K, 21973 kPa | 60.63
161.58 K, 23733 kPa | 60.93
163.12 K, 26095 kPa | 60.76
164.21 K, 27828 kPa | 61.2
165.73 K, 30131 kPa | 61.05
166.81 K, 31798 kPa | 61.54
174.72 K, 4244 kPa | 60.48
175.51 K, 5348 kPa | 60.54
177.36 K, 7916 kPa | 60.58
178.15 K, 9061 kPa | 60.86
179.97 K, 11523 kPa | 61.04
180.77 K, 12700 kPa | 61.22
182.57 K, 15077 kPa | 61.29
183.38 K, 16221 kPa | 61.34
185.16 K, 18570 kPa | 61.57
185.97 K, 19691 kPa | 61.79
187.72 K, 22005 kPa | 62.06
188.54 K, 23141 kPa | 62.12
190.27 K, 25385 kPa | 62.49
191.1 K, 26538 kPa | 62.39
192.81 K, 28708 kPa | 62.66
193.64 K, 29843 kPa | 62.88
195.33 K, 31980 kPa | 62.87
196.16 K, 33063 kPa | 63.39
199.29 K, 3434 kPa | 62.08
200.29 K, 4569 kPa | 62.02
201.88 K, 6487 kPa | 62.05
202.88 K, 7627 kPa | 62.29
204.46 K, 9498 kPa | 62.44
205.45 K, 10675 kPa | 62.72
207.03 K, 12468 kPa | 63.03
208.02 K, 13633 kPa | 63.07
209.59 K, 15407 kPa | 63.29
210.57 K, 16525 kPa | 63.38
212.13 K, 18295 kPa | 63.46
213.11 K, 19392 kPa | 63.48
214.66 K, 21152 kPa | 63.9
215.63 K, 22244 kPa | 63.92
217.18 K, 23972 kPa | 64.21
218.15 K, 25069 kPa | 64.71
219.69 K, 26749 kPa | 64.74
220.66 K, 27850 kPa | 64.89
222.18 K, 29491 kPa | 65.36
223.14 K, 30548 kPa | 65.25
224.67 K, 32203 kPa | 65.68
224.72 K, 3002 kPa | 64.29
225.63 K, 33221 kPa | 66
225.69 K, 3945 kPa | 64.4
227.28 K, 5514 kPa | 64.59
228.26 K, 6458 kPa | 64.54
229.84 K, 8010 kPa | 64.8
230.82 K, 8990 kPa | 65.2
232.38 K, 10480 kPa | 64.79
233.38 K, 11478 kPa | 65.49
234.92 K, 12923 kPa | 65.31
235.92 K, 13904 kPa | 65.71
237.46 K, 15350 kPa | 65.71
238.46 K, 16299 kPa | 66.07
239.99 K, 17746 kPa | 65.96
240.99 K, 18681 kPa | 66.68
242.51 K, 20123 kPa | 66.43
243.5 K, 21054 kPa | 66.99
245.03 K, 22471 kPa | 67.42
246.01 K, 23413 kPa | 67.65
247.54 K, 24804 kPa | 67.75
248.53 K, 25750 kPa | 67.69
249.66 K, 2670 kPa | 66.76
250.04 K, 27105 kPa | 67.7
250.68 K, 3498 kPa | 66.65
251.02 K, 28035 kPa | 68.22
252.25 K, 4769 kPa | 67.25
252.53 K, 29385 kPa | 68.06
253.26 K, 5557 kPa | 67.47
253.52 K, 30287 kPa | 68.63
254.85 K, 6861 kPa | 67.69
255.02 K, 31645 kPa | 68.71
255.85 K, 7667 kPa | 67.82
256 K, 32529 kPa | 69.58
257.44 K, 8938 kPa | 67.87
258.44 K, 9764 kPa | 67.88
260.02 K, 10999 kPa | 68.4
261.02 K, 11824 kPa | 68.53
262.61 K, 13051 kPa | 68.83
263.6 K, 13861 kPa | 69.03
265.2 K, 15091 kPa | 69.38
266.18 K, 15878 kPa | 69.32
267.79 K, 17120 kPa | 69.94
268.76 K, 17881 kPa | 69.68
270.37 K, 19134 kPa | 70.51
271.33 K, 19881 kPa | 70.43
272.95 K, 21136 kPa | 70.81
273.9 K, 21877 kPa | 70.9
275.54 K, 23127 kPa | 70.92
276.18 K, 3327 kPa | 70.24
276.48 K, 23865 kPa | 71.62
276.56 K, 3559 kPa | 70.86
278.12 K, 25101 kPa | 71.49
278.85 K, 5025 kPa | 70.73
279.04 K, 25835 kPa | 72.09
279.23 K, 5297 kPa | 71.29
280.7 K, 27065 kPa | 72.08
281.51 K, 6761 kPa | 71.44
281.61 K, 27786 kPa | 72.29
281.9 K, 7032 kPa | 70.95
283.29 K, 29020 kPa | 72.18
284.18 K, 8508 kPa | 71.57
284.19 K, 29713 kPa | 72.65
284.58 K, 8760 kPa | 71.75
285.87 K, 30962 kPa | 72.47
286.77 K, 31632 kPa | 72.64
286.85 K, 10247 kPa | 71.76
287.26 K, 10490 kPa | 72.25
288.45 K, 32894 kPa | 72.96
289.34 K, 33552 kPa | 73.33
289.52 K, 11964 kPa | 71.92
289.95 K, 12212 kPa | 72.29
292.2 K, 13671 kPa | 72.85
292.64 K, 13928 kPa | 73.17
294.88 K, 15364 kPa | 73.57
295.34 K, 15644 kPa | 73.82
297.56 K, 17055 kPa | 74.47
298.05 K, 17358 kPa | 74.2
300.26 K, 18750 kPa | 74.37
300.73 K, 2939 kPa | 74.37
300.76 K, 19068 kPa | 74.45
301.58 K, 3377 kPa | 74.41
301.67 K, 3419 kPa | 74.62
302.95 K, 20442 kPa | 74.16
303.48 K, 20773 kPa | 74.78
303.54 K, 4354 kPa | 74.77
304.37 K, 4801 kPa | 74.97
304.51 K, 4850 kPa | 74.76
305.65 K, 22131 kPa | 75.52
306.2 K, 22473 kPa | 75.56
306.36 K, 5801 kPa | 74.54
307.19 K, 6235 kPa | 74.97
307.35 K, 6310 kPa | 75.3
308.37 K, 23829 kPa | 76.01
308.94 K, 24172 kPa | 76.12
309.19 K, 7252 kPa | 75.53
310.01 K, 7669 kPa | 75.56
310.22 K, 7778 kPa | 75.78
311.08 K, 25517 kPa | 76.58
311.68 K, 25869 kPa | 76.11
312.04 K, 8706 kPa | 75.83
312.85 K, 9104 kPa | 76.02
313.1 K, 9241 kPa | 76.23
313.82 K, 27203 kPa | 77.38
314.43 K, 27556 kPa | 77.06
314.91 K, 10151 kPa | 75.71
315.69 K, 10543 kPa | 77.05
316 K, 10697 kPa | 76.49
316.58 K, 28887 kPa | 76.95
317.18 K, 29242 kPa | 77.79
317.79 K, 11598 kPa | 77.05
318.56 K, 11984 kPa | 77.31
318.91 K, 12158 kPa | 77.07
319.33 K, 30553 kPa | 77.02
319.67 K, 2142 kPa | 76.76
319.95 K, 30930 kPa | 77.48
320.71 K, 13058 kPa | 77.4
321.3 K, 2771 kPa | 77.58
321.43 K, 13428 kPa | 77.25
321.83 K, 13623 kPa | 76.95
322.1 K, 32227 kPa | 78.59
322.71 K, 3326 kPa | 77.29
322.73 K, 32614 kPa | 78
323.62 K, 14518 kPa | 78.11
324.31 K, 14874 kPa | 77.39
324.35 K, 3977 kPa | 78.06
324.77 K, 15094 kPa | 77.5
324.91 K, 33925 kPa | 78.84
325.78 K, 4543 kPa | 78.25
326.57 K, 15995 kPa | 78.02
327.22 K, 16325 kPa | 78.34
327.42 K, 5191 kPa | 78.96
327.73 K, 16576 kPa | 78.56
328.88 K, 5770 kPa | 78.35
329.52 K, 17472 kPa | 78.67
330.15 K, 17784 kPa | 78.59
330.51 K, 6416 kPa | 78.78
330.7 K, 18059 kPa | 79.38
331.99 K, 6999 kPa | 78.63
332.5 K, 18957 kPa | 79.25
333.09 K, 19244 kPa | 78.85
333.62 K, 7647 kPa | 78.71
333.68 K, 19542 kPa | 80.2
335.12 K, 8240 kPa | 79.2
335.5 K, 20439 kPa | 79.93
336.05 K, 20709 kPa | 79.2
336.7 K, 21027 kPa | 80.28
336.76 K, 8887 kPa | 79.06
338.28 K, 9489 kPa | 80.76
338.52 K, 21926 kPa | 80.26
339.05 K, 22184 kPa | 80.79
339.73 K, 22511 kPa | 80.76
339.92 K, 10135 kPa | 80.44
341.46 K, 10747 kPa | 81.71
341.56 K, 23408 kPa | 80.54
342.07 K, 23667 kPa | 81.31
342.79 K, 24013 kPa | 81.23
343.1 K, 11393 kPa | 80.84
344.62 K, 24907 kPa | 81.87
344.67 K, 12011 kPa | 81.35
